Results: the NIST ThermoML archive (doi:10.1021/je9000679)

Conditions: for surface tension liquid-gas: Maximal bubble pressure; for mass density: 101.33 kPa, Liquid

CCCCCC[n+]1ccccc1.[O]=[Re](=[O])(=[O])[O-] [1-hexylpyridinium perrhenate]
Conditions	mass density [kg/m3]	surface tension liquid-gas [mN/m]
293.15 K	1794.6	34.4
298.15 K	1787	34
303.15 K	1779	33.6
308.15 K	1771.3	33.2
313.15 K	1765	33
318.15 K	1759	32.6
323.15 K	1751.4	32.3
328.15 K	1743.9	32
333.15 K	1738	31.8
338.15 K	1732.3	31.5
343.15 K	1726.9	31.1
